Laboratory results as given in patent US12421228B2 (Mirati Therapeutics, Inc., priority 2019, dated 2025).

Experiments:
[1] = test system: Karpas 422 cells (EZH2 Y641N); experiment: Karpas 422 cell viability (Cell Titre Glo); format: cell-based; settings: Homo sapiens, CTG viability, Day 4, Day 7 or Day 11 (time point not given), read-out: IC50 (nM), Inhibiting Proliferation of Cells Expressing an Activating Mutant Form of EZH2
Method: Karpas 422 cell line is a human B cell non-Hodgkin's lymphoma cell line established from a patient having DLBCL. This EZH2 heterozygotic cell line expresses a mutant form of EZH2 enzyme (Y641N) that increases histone H3 methylation and this mutation has been implicated in the tumorgenesis of lymphomas, such as DLBCL.
Karpas 422 cells (PHE cat no., 06101702) were cultured in RPMI medium supplemented with 20% fetal bovine serum and 1% penicillin/1% streptomycin and plated at a density of 1000 cells/90 μl/well in 96 well white assay plates. A dose response curve for compounds of the present invention was determined by adding a 10 μl aliquot of stock solutions of varying concentrations of compounds to the same medium in each well, over a concentration range of 10 μM using 3-fold dilutions to a final concentration of 1.5 nM. The plates were incubated at 37° C. for predetermined time periods, Day 4, Day 7, or Day 11, and the viability of the cells was measured using a CTG assay kit (Cell Titre Glo; Promega cat. no G7573) on Day 4 and Day 7 in accordance with the manufacturer's instructions.
For the viability assay for the Day 11 plates, the plates were subjected to centrifugation at 1100 rpm for five minutes on Day 7 and the supernatant was removed by aspiration. The cells were resuspended in 90 μl aliquot of the appropriate growth medium lacking the compound followed by addition of 10 μl of a 10× stock of the same compound at the same concentration. The viability of the Day 11 cells was measured using the CTG assay kit described above in accordance with the manufacturer's instructions. The IC50 values for each compound at each predetermined time point were calculated using Graph pad PRISM software and the results are shown in Table 8. A=≤250 nM; B=[…]−≤500 nM; C=>500 nM and N.D.=not determined.

[2] = test system: PRC2-mediated histone H3 methylation in Pfeiffer cells (EZH2 A677G); experiment: Tri-Methyl Histone H3 (Lys 27) sandwich ELISA in Pfeiffer cells; format: cell-based; settings: Homo sapiens, 96 hours incubation, H3K27me3 ELISA, read-out: IC50 (nM), Inhibition of EZH2-mediated Histone H3 Trimethylation
Text: The Pfeiffer cell line was established from a […] from a patient having metastatic diffuse large B-cell lymphoma (DLBCL). This cell line expresses a mutant form of the EZH2 enzyme (A677G) that results in enhanced EZH2 activity leading to increased methylation of histone H3 Lys27. Increased trimethylation of histone H3 Lys27 is believed to be implicated in tumorgenesis and poor clinical prognosis in lymphomas (McCabe et al., (2012) Nature 492:108-112).
Inhibition of PRC2-mediated histone H3 methylation by compounds of Formula (I) was measured by ELISA using a Tri-Methyl Histone H3 (Lys 27) Sandwich ELISA Kit (Cell Signaling Tech #7866C) in accordance with the manufacturer's instructions. Briefly, Pfeiffer cells were cultured in RPMI medium supplemented with 10% fetal bovine serum and 1% penicillin and 1% streptomycin in 96 well culture plates at 37° C. to a density of 8000 cells/90 μl/well and the cells were harvested. A series of 3-fold serial dilutions of each test compound of Formula (I) were prepared in RPMI medium and added to the cells at final concentrations ranging from […] to 0.15 nM. The plates were incubated at 37° C. for 96 hours.
After incubation, the cells were pelleted by centrifugation in a pre-cooled 4° C. rotor at 1,100 rpm for 10 min and the supernatant was removed by aspiration. The cell pellet was resuspended in 55 μl of Lysis Buffer (0.4M HCl) and incubated on ice with periodic shaking for 30 minutes. The lysed cells were subjected to centrifugation at 4,200 rpm for 10 min at 4° C. and the supernatant containing acid-soluble proteins was collected and the remainder discarded. The acid-soluble proteins were brought to a neutral pH by the addition of 20 μl of Neutralization Buffer (1 M Sodium phosphate, dibasic (pH 12.5), 2.5 mM DTT and 1 mM PMSF) and the neutralized lysates were analyzed by ELISA.
A 65 μl aliquot of each cell lysate was added to a well of a microwell strip, the microwells were sealed using tape and incubated either at 37° C. for two hours or at 4° C. overnight. After incubation, the tape was removed at the microwells were washed four times using 200 μl of 1× Wash Buffer. To each washed microwell, a 100 μl aliquot of an anti-trimethyl histone H3 Lys27 Detection Antibody solution was added and the microwells were incubated at 37° C. for one hour. The Detection Antibody solution was removed by aspiration and the wells were washed four times each using 200 μl of 1× Wash Buffer.
A 100 μl aliquot of an HRP-linked secondary antibody was added to each well, the wells were sealed with tape and incubated at 37° C. for 30 min. The HRP-linked secondary antibody solution was removed by aspiration and the wells were washed four times using 200 μl of 1× Wash Buffer. A 100 μl aliquot of a TMB substrate was added to each well, the wells were sealed with tape and incubated at 37° C. for 10 min or 25° C. for 30 min. The reaction was stopped by the addition of 100 μl aliquot of a STOP solution and the plate was shaken briefly. The degree of histone H3 trimethylation was determined using a spectrophotometric readout by measuring the absorbance at 450 nm and then calculating the amount of trimethylated histone H3. A=≤100 nM; B=>100 nM−≤500 nM; C=>500 nM and N.D.=not determined.

[3] = molecular target: purified human, His-tagged PRC2 complex (Homo sapiens (Human), UniProt O75530); experiment: Hot Spot HMT assay, inhibition of PRC2 enzymatic activity; format: biochemical; settings: 10 nM PRC2 complex, 0.05 mg/ml core histone H3, 1 μM 3H-SAM, 1 hr at 30° C.; read-out: IC50, Inhibition of PRC2-mediated Enzymatic Activity
purified human, His-tagged PRC2 complex, sequence (Q15910 whole entry): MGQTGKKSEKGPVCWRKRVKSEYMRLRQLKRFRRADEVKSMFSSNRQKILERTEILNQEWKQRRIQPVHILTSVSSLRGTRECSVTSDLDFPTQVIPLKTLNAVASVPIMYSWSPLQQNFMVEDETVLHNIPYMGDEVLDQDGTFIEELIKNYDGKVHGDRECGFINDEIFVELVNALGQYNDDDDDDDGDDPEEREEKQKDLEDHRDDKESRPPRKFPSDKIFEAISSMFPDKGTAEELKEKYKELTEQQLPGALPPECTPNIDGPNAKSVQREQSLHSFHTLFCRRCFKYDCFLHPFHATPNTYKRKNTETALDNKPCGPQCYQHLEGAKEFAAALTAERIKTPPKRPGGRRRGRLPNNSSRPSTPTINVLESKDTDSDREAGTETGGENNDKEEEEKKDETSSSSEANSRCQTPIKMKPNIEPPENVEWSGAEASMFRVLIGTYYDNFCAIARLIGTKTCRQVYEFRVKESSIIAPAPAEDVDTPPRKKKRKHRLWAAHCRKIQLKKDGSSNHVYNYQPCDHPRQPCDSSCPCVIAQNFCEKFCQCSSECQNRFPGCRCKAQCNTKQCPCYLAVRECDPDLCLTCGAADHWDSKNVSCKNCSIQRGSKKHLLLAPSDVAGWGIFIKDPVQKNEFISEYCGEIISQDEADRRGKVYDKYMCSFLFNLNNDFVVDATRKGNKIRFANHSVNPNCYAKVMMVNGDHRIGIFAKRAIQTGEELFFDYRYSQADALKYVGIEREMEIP
purified human, His-tagged PRC2 complex, sequence (O75530 whole entry): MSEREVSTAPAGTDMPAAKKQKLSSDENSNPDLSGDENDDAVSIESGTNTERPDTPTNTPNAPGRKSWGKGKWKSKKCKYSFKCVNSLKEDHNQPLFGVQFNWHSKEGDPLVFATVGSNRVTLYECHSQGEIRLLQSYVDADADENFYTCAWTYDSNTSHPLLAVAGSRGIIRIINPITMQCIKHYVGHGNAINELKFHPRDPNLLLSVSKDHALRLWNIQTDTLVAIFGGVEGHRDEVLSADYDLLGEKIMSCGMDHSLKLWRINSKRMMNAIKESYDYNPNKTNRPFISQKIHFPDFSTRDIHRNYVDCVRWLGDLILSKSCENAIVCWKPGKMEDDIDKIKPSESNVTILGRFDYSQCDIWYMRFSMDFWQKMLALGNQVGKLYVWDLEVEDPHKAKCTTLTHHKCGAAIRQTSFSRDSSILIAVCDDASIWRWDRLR
purified human, His-tagged PRC2 complex, sequence (Q15022 whole entry partner): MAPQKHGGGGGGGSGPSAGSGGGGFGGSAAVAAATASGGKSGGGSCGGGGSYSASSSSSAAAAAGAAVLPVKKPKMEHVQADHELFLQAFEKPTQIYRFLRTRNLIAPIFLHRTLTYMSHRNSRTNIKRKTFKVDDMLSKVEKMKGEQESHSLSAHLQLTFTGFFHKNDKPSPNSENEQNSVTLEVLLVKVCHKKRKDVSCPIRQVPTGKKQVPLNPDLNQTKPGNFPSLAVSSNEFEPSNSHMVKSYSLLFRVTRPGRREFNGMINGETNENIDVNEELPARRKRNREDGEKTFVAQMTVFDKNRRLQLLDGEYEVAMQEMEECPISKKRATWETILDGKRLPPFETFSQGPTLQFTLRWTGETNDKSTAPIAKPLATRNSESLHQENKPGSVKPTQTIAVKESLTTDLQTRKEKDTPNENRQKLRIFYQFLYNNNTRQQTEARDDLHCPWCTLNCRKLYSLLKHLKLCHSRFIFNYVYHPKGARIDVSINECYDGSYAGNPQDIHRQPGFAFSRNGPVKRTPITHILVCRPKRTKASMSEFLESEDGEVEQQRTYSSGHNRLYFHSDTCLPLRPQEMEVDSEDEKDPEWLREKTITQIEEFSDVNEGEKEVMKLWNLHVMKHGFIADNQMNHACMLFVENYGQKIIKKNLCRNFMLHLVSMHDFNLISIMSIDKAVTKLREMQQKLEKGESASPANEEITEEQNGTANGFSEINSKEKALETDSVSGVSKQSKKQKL
purified human, His-tagged PRC2 complex, sequence (Q6ZN18 whole entry partner): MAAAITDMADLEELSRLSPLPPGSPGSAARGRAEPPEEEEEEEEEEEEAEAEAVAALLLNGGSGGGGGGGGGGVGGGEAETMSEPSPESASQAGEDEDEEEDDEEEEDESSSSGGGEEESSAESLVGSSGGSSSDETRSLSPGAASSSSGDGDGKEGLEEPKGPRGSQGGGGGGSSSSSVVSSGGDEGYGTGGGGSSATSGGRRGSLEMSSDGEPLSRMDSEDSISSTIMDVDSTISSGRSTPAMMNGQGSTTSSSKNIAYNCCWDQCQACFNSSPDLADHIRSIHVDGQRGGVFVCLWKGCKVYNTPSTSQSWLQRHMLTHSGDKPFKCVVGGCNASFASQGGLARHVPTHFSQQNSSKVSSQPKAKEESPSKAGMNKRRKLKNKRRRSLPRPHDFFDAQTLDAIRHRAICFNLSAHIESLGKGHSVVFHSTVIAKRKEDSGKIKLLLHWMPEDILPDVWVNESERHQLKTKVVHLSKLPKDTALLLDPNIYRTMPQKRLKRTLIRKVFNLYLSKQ
purified human, His-tagged PRC2 complex, sequence (Q09028 whole entry partner): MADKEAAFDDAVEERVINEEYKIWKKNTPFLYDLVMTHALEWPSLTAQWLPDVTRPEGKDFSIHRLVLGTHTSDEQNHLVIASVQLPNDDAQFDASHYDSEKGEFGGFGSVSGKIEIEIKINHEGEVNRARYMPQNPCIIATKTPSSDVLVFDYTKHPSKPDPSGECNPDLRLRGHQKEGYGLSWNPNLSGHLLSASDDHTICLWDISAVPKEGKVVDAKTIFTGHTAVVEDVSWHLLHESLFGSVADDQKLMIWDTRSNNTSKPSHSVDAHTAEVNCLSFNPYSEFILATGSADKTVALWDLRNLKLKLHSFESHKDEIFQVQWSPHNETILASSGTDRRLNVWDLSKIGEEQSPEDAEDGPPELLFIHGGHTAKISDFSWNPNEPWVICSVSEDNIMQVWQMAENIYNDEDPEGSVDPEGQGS
Method: Ten-point dose-response curves for compounds of the present invention were determined using a Hot Spot HMT assay (Reaction Biology Corp; see Horiuchi et al., Assay Drug Dev Technol. (2013) 4: 227-236 doi: 10.1089/adt.2012.480). The assay uses purified human, His-tagged PRC2 complex, including N-terminal His-tagged EZH2 enzyme, N-terminal Flag-tagged embryonic ectoderm development protein (EED), N-terminal His-tagged suppressor of zeste 12 (SUZ12), N-terminal His-tagged AEBP2, and N-terminal His-tagged RbAp48. In this assay, the transfer of the tritiated methyl group from radiolabeled S-adenosyl methionine (SAM) to purified core histone protein by EZH2 is quantitated after filtration to determine the activity of the core PRC2 complex in the presence and absence of compound.
Briefly, compounds of the present invention were solubilized in DMSO and a series of 10, three-fold serial dilutions were made for each compound in 15% DMSO. The initial starting concentration for the serial dilutions of each compound was 1.0 μM. Control samples lacking compound, EZH2 enzyme or various reaction components also were prepared and processed in parallel with compound test samples. SAH (S-(5-adenosyl)-L-homocysteine) was used as a positive control for assay validation.
An aliquot of each serial dilution of test compound was added to deep 384 well plate using Acoustic Technology instrument (Echo 550, LabCyte) containing reaction buffer (50 mM Tris-HCl (pH 8)), 0.01% Brij35, 1 mM EDTA, 1 mM DTT, 1 mM PMSF and 1% DMSO), 10 nM purified PRC2 complex and 0.05 mg/ml core histone H3 in a 5 μl volume. The reaction was mixed gently and then pre-incubated for 20 min at 30° C. The enzymatic reaction was initiated by adding 1 μM S-Adenosyl-L-[methyl-^3H]methionine and incubated for 1 hr at 30° C. After 1 hr, the reaction product was detected using a filter binding method and the amount of tritiated H3 core histone was quantitated using a scintillation counter. The IC50 value for each compound was determined from each 10-point dose-response curve using GraphPad Prism software and the results for compounds of present invention, including compounds of Formula (I) and Formula (II) are shown in Table 6. Key: A=<100 nM; B=>100 nM−<250 nM; and C=>250 nM.

NS(=O)(=O)c1ccc(-c2cnc(NCc3c(F)ccc4c3CCO4)c3cnncc23)cc1 [Example 1]
IC50 [1]: ≤ 250 nM | IC50 [2]: ≤ 100 nM | IC50 [3]: < 100 nM

Fc1ccc2c(c1CNc1ncc(-c3ccc(CN4CCCC4)cc3)c3cnncc13)CCO2 [Example 2]
IC50 [1]: ≤ 250 nM | IC50 [2]: ≤ 100 nM | IC50 [3]: < 100 nM

Cc1cc(S(C)(=O)=O)ccc1-c1cnc(NCc2c(F)ccc3c2CCO3)c2cnncc12 [Example 3]
IC50 [1]: ≤ 250 nM | IC50 [2]: ≤ 100 nM | IC50 [3]: < 100 nM

Cc1cc(C(=O)N(C)C)ncc1-c1cnc(NCc2c(F)ccc3c2CCO3)c2cnncc12 [Example 4]
IC50 [1]: ≤ 250 nM | IC50 [2]: ≤ 100 nM | IC50 [3]: 100 to 250 nM

Cc1c(-c2cnc(NCc3c(F)ccc4c3CCO4)c3cnncc23)ccc(CN(C)C)c1F [Example 5]
IC50 [1]: ≤ 250 nM | IC50 [2]: ≤ 100 nM | IC50 [3]: > 250 nM

Cc1cc(CN(C)C)ccc1-c1cnc(NCc2c(F)ccc3c2CCO3)c2cnncc12 [Example 6]
IC50 [1]: ≤ 250 nM | IC50 [2]: ≤ 100 nM | IC50 [3]: < 100 nM

CNS(=O)(=O)c1ccc(-c2cnc(NCc3c(F)ccc4c3CCO4)c3cnncc23)cc1 [Example 7]
IC50 [1]: ≤ 250 nM | IC50 [2]: ≤ 100 nM | IC50 [3]: < 100 nM

CN(C)S(=O)(=O)c1ccc(-c2cnc(NCc3c(F)ccc4c3CCO4)c3cnncc23)cc1 [Example 8]
IC50 [1]: ≤ 250 nM | IC50 [2]: ≤ 100 nM | IC50 [3]: < 100 nM

CN(C)C(=O)c1ccc(-c2cnc(NCc3c(F)ccc4c3CCO4)c3cnncc23)cc1 [Example 9]
IC50 [1]: ≤ 250 nM | IC50 [2]: ≤ 100 nM | IC50 [3]: 100 to 250 nM

CN(C)S(=O)(=O)c1ccc(-c2cnc(NCc3c(F)ccc4c3CCO4)c3cnncc23)cn1 [Example 10]
IC50 [1]: ≤ 250 nM | IC50 [2]: ≤ 100 nM | IC50 [3]: < 100 nM

Cc1ncccc1-c1cnc(NCc2c(F)ccc3c2CCO3)c2cnncc12 [Example 11]
IC50 [1]: ≤ 250 nM | IC50 [2]: ≤ 100 nM | IC50 [3]: < 100 nM

Cc1cc(-c2cnc(NCc3c(F)ccc4c3CCO4)c3cnncc23)ccn1 [Example 12]
IC50 [1]: ≤ 250 nM | IC50 [2]: ≤ 100 nM | IC50 [3]: < 100 nM

Cc1cc(-c2cnc(NCc3c(F)ccc4c3CCO4)c3cnncc23)n(C)n1 [Example 13]
IC50 [1]: ≤ 250 nM | IC50 [2]: ≤ 100 nM | IC50 [3]: < 100 nM

CN(C)Cc1ccc(-c2cnc(NCc3c(F)ccc4c3CCO4)c3cnncc23)cc1F [Example 14]
IC50 [1]: ≤ 250 nM | IC50 [2]: ≤ 100 nM | IC50 [3]: < 100 nM

CN(C)C(=O)c1cc(-c2cnc(NCc3c(F)ccc4c3CCO4)c3cnncc23)n(C)n1 [Example 15, 5-(5-(((5-fluoro-2,3-dihydrobenzofuran-4-yl)methyl)amino)pyrido[3,4-d]pyridazin-8-yl)-N,N,1-trimethyl-1H-pyrazole-3-carboxamide]
IC50 [1]: ≤ 250 nM | IC50 [2]: ≤ 100 nM | IC50 [3]: < 100 nM

Cn1nc(C#N)cc1-c1cnc(NCc2c(F)ccc3c2CCO3)c2cnncc12 [Example 16, 5-(5-(((5-fluoro-2,3-dihydrobenzofuran-4-yl)methyl)amino)pyrido[3,4-d]pyridazin-8-yl)-1-methyl-1H-pyrazole-3-carbonitrile]
IC50 [1]: ≤ 250 nM | IC50 [2]: ≤ 100 nM | IC50 [3]: < 100 nM

CN1CCc2cc(-c3cnc(NCc4c(F)ccc5c4CCO5)c4cnncc34)ccc2C1 [Example 17, N-((5-fluoro-2,3-dihydrobenzofuran-4-yl)methyl)-8-(2-methyl-1,2,3,4-tetrahydroisoquinolin-6-yl)pyrido[3,4-d]pyridazin-5-amine]
IC50 [1]: ≤ 250 nM | IC50 [2]: ≤ 100 nM | IC50 [3]: < 100 nM

CN(C)CCn1nccc1-c1cnc(NCc2c(F)ccc3c2CCO3)c2cnncc12 [Example 18, 8-(1-(2-(dimethylamino)ethyl)-1H-pyrazol-5-yl)-N-((5-fluoro-2,3-dihydrobenzofuran-4-yl)methyl)pyrido[3,4-d]pyridazin-5-amine]
IC50 [1]: ≤ 250 nM | IC50 [2]: 100 to 500 nM | IC50 [3]: > 250 nM

CNCc1ccc(-c2cnc(NCc3c(F)ccc4c3CCO4)c3cnncc23)c(C)c1 [Example 19, N-((5-fluoro-2,3-dihydrobenzofuran-4-yl)methyl)-8-(2-methyl-4-((methylamino)methyl)phenyl)pyrido[3,4-d]pyridazin-5-amine]
IC50 [1]: ≤ 250 nM | IC50 [2]: ≤ 100 nM | IC50 [3]: < 100 nM

CCNCc1ccc(-c2cnc(NCc3c(F)ccc4c3CCO4)c3cnncc23)c(C)c1 [Example 20, 8-(4-((ethylamino)methyl)-2-methylphenyl)-N-((5-fluoro-2,3-dihydrobenzofuran-4-yl)methyl)pyrido[3,4-d]pyridazin-5-amine]
IC50 [1]: ≤ 250 nM | IC50 [2]: ≤ 100 nM | IC50 [3]: < 100 nM
